# Source: ChEMBL document CHEMBL1153052, “Identification of new Hsp90 inhibitors by structure-based virtual screening” (Bioorg Med Chem Lett, 2009)
# Calls of active or inactive are those of the source. The calls are words filed in the database; no cut-off is given here.
# Key:
# [1] = target: T1, Heat shock protein HSP90 (Homo sapiens) (UniProt P07900+P08238); assay: Inhibition of Hsp90 in human MCF7 cells assessed as induction of Hsp70 expression at 20 to 40 uM after 24 hrs by Western blotting; format: cell-based
# [2] = target: T1, Heat shock protein HSP90 (Homo sapiens); assay: Inhibition of Hsp90 in human MCF7 cells assessed as Her2 degradation at 20 to 40 uM after 24 hrs by Western blotting; format: cell-based
# [3] = test system: MCF7; assay: Cytotoxicity against human MCF7 cells by SRB assay; format: functional, cell-based
# [4] = target: ATP-dependent molecular chaperone HSP82 (Saccharomyces cerevisiae S288c, UniProt P02829); assay: Inhibition of yeast Hsp90 ATPase activity by ATPase assay using malachite green colorimetric method
# ATP-dependent molecular chaperone HSP82, sequence (P02829 whole entry): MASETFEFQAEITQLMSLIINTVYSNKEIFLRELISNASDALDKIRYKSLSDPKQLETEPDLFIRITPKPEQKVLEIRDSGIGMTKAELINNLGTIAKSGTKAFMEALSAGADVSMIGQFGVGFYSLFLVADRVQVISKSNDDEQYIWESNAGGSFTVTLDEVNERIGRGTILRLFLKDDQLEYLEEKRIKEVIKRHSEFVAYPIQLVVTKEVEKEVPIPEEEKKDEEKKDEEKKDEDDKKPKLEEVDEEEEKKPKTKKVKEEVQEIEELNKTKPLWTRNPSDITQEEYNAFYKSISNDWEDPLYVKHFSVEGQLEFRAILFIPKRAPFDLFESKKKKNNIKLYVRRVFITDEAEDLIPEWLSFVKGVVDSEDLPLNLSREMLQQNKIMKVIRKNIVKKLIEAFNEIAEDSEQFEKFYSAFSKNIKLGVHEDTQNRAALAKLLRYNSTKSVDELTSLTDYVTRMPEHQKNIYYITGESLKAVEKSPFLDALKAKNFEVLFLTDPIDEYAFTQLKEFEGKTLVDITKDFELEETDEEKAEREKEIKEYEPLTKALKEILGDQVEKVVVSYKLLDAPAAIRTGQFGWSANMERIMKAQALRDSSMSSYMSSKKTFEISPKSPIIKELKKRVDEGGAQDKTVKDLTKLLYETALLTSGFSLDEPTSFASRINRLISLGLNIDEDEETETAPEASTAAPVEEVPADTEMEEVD
Structure (SMILES),Activity [1],Activity [2],IC50 [3] [µM],IC50 [4] [µM]
COc1ccc(-c2cc(-c3nnc(S)n3-c3cccc4ccccc34)[nH]n2)cc1,inactive,Active,,
O=C(CSc1nnc(-c2ccc3c(c2)OCO3)n1-c1ccccc1)c1ccccc1,inactive,Active,44.6,15.4
CCOc1cc(/C=C2\C(=O)NC(=O)N(Cc3ccccc3)C2=O)ccc1O,inactive,,,
Cc1cccc(N2C(=O)NC(=O)/C(=C/c3ccccc3OCC(=O)O)C2=O)c1,inactive,Active,,
O=C(CSc1nnc(-c2cccnc2)n1-c1ccccc1)NCc1ccccc1,inactive,Active,,
O=C1NC(=O)N(c2ccccc2F)C(=O)/C1=C\c1cn(Cc2ccccc2)c2ccccc12,Active,Active,18.1,24.6
COC1=C2C[C@@H](C)C[C@H](OC)[C@H](O)[C@@H](C)/C=C(\C)[C@H](OC(N)=O)[C@@H](OC)/C=C\C=C(/C)C(=O)NC(=CC1=O)C2=O [GELDANAMYCIN],,,9.6,
